Data taken from patent publication US20090181890A1, “Amylin and Amylin Agonists for Treating Psychiatric Diseases and Disorders” (Amylin Pharmaceuticals , Inc., priority 2006, published 2009).

Tests used:
[1] = adsorption onto glass container in liquid form; assay type: physicochemical
treated test animals = settings: cited from earlier work
[2] = compared to human amylin; cited from earlier work
mice [3] = settings: mouse, in vivo
Description: The PCP-induced locomotion test is used with the open field activity chambers and measures locomotion, rearing, and stereotypic activity under amphetamine/PCP-induced conditions. The test has predictive validity for some antipsychotic drugs that normalize the hyperactivity and stereotypic behavior seen with amphetamine and PCP. See, for example, Williams et al. (2006) Prog. Neuropsychopharmacol. Biol. Psychiatry 30:239-243. Mice were injected with the test agent (rat amylin at 0.1, 1.0 or 10 mg/kg, 3 mg/kg clozapine (CZP), or vehicle) 15-30 minutes prior injection with 5 mg/kg PCP. The animals were then placed in the center of an open field and activity was recorded for 60 minutes. […] CZP is an atypical, second generation antipsychotic drug has a mixed receptor profile, including the dopamine receptor.

mice [4] = assay: marble burying; assay type: in vivo
Description: To confirm the interpretation of the findings outlined under Example 1, a variety of animal behavior assays were performed to test for anxiolytic, antidepressant, and antipsychotic effects of amylin administration. […] These specific behavioral tests are known to be sensitive to anxiolytic, antidepressant, or antipsychotic drugs. For these assays, rat amylin was administered to mice at doses ranging from 0.1 to 10 mg/kg, intraperitoneally or via a subcutaneously implanted osmotic pump (ALZET®) containing vehicle or rat amylin, and their performance in the assay was assessed.
Marble burying is used as a model for both anxiety and obsessive-compulsive disorder. See, for example, Chaki et al. (2003) J. Pharmacol. Exp. Ther. 304:818-826. Anxiolytics suppress marble burying activity. Mice were injected with the test agent (rat amylin at 0.1, 1.0 or 10 mg/kg, […] buspirone, or vehicle) 15-30 minutes prior to the test. Mice were then placed individually in clean cages containing 5-cm of hard wood bedding and 20 marbles spaced evenly in rows of five. The number of marbles buried in 30 minutes was recorded. […] Buspirone is a partial 5-HT1A agonist and an known anxiolytic agent.

[5] = weight gain induced by clozapine; assay type: in vivo, rats; settings: clozapine 0.025 and 0.25 mg/kg/day, s.c. osmotic pumps, 4 weeks; diet 58% kcal from fat; FIG. 7A
Description: The effect of amylin administration on weight gain induced by the second generation antipsychotic clozapine was examined. Adult, male Sprague-Dawley® rats (diet=58% kcal from fat) were implanted subcutaneously in the interscapular region with osmotic pumps that continuously delivered vehicle or drug for 4 weeks. In one experiment, rats were treated with vehicle or clozapine (0.025 and 0.25 mg/kg/day).

mice [6] = assay: prepulse inhibition (PPI) test; assay type: in vivo; settings: amylin at 10 mg/kg, haloperidol at 1 mg/kg; all prepulse levels (74, 78, and 82 dB); FIG. 5
Description: The prepulse inhibition (PPI) test measures the reflex response to externally applied auditory stimulation (acoustic startle response) and is related to the deficiency in sensory-motor gating capacity seen in schizophrenia. The acoustic startle reflex is a very basic response to strong exteroceptive stimuli and is widely used to assess sensorimotor reactivity in animals and humans. A weak auditory stimulus (prepulse, 74-82 dB) given prior to the strong acoustic stimulus (120 dB) blunts the startle response. This blunting of the startle response is referred to as prepulse inhibition. See, for example, Conti et al (2005) Behavioral Neuroscience 119: 1052-1060. Antipsychotics increase the ability of the prepulse stimulus to blunt the startle response to the strong stimulus. Some psychotomimetic agents, such as phencyclidine (PCP) and ketamine, can actually reduce the percent prepulse inhibition and stimulate a psychotic-like state in animals, which can be antagonized by antipsychotic agents.
Mice were injected with the test agent (rat amylin at 0.1, 1.0 or 10 mg/kg, or vehicle) […] prior to the test or with haloperidol at 1 mg/kg 30 minutes prior to the test. The mice were placed into an animal holder and the holder placed onto a transducer platform in an acoustic chamber. […] The amount of the animal's “reaction” to the strong stimulus was recorded. […]

mice [7] = assay: novel object recognition; assay type: in vivo; settings: rolipram 0.1 mg/kg IP 30 minutes prior to training; test 24 hours later; FIG. 8
Description: Since cognitive impairment is associated with psychoses, the effect of amylin administration on novel object recognition was examined. The novel object recognition task was used to measure working memory. See, for example, Miyamoto et al (2005) J. Neuroscience 25:1826-1835. Generally, animals spend less time exploring a previously presented object and more time exploring a novel object when both are presented together. Mice were injected IP with the test agent (rat amylin at 1.0 or 10 mg/kg, 0.1 mg/kg rolipram, or vehicle) 30 minutes prior to the training session. In the training, the mouse was allowed to explore two novel objects placed in the center of an open field. The time spent exploring each object was recorded. The objects differed in color, shape, and texture. Twenty-four hours after the training session, the mouse was placed back in the same open field in which one of the now familiar objects used in the training session was replaced by a novel object. The time spent exploring each object was again recorded. The memory index (or discrimination index) is the time spent exploring the novel object over the total time spent exploring both the novel and familiar objects (times 100). Results of this assay are shown in FIG. 8 where * is P<0.05 vs. vehicle.

CC[C@H](C)[C@H](NC(=O)[C@@H]1CCCN1C(=O)CNC(=O)[C@H](Cc1ccccc1)NC(=O)[C@H](CC(N)=O)NC(=O)[C@H](CC(N)=O)NC(=O)[C@H](CO)NC(=O)[C@H](CO)NC(=O)[C@H](Cc1c[nH]cn1)NC(=O)[C@@H](NC(=O)[C@H](CC(C)C)NC(=O)[C@H](Cc1ccccc1)NC(=O)[C@H](CC(N)=O)NC(=O)[C@H](C)NC(=O)[C@H](CC(C)C)NC(=O)[C@H](CCCNC(=N)N)NC(=O)[C@H](CCC(N)=O)NC(=O)[C@@H](NC(=O)[C@H](C)NC(=O)[C@@H]1CSSC[C@H](NC(=O)[C@@H](N)CCCCN)C(=O)N[C@@H](CC(N)=O)C(=O)N[C@@H]([C@@H](C)O)C(=O)N[C@@H](C)C(=O)N[C@@H]([C@@H](C)O)C(=O)N1)[C@@H](C)O)C(C)C)C(=O)N[C@@H](CC(C)C)C(=O)N1CCC[C@H]1C(=O)N1CCC[C@H]1C(=O)N[C@H](C(=O)N[C@@H](CC(N)=O)C(=O)N[C@H](C(=O)NCC(=O)N[C@@H](CO)C(=O)N[C@@H](CC(N)=O)C(=O)N[C@H](C(=O)N[C@@H](Cc1ccc(O)cc1)C(N)=O)[C@@H](C)O)C(C)C)[C@@H](C)O [^25,28,29Pro-h-amylin]
tendency to adsorb onto glass [1]: does not have a tendency to adsorb onto the glass | amylin activity in vivo (treated test animals): provoking marked hyperlactemia followed by hyperglycemia | stability characteristics [2]: more desirable

CC(C)C[C@H](NC(=O)[C@H](CC(N)=O)NC(=O)[C@H](CC(N)=O)NC(=O)[C@H](CO)NC(=O)[C@H](CO)NC(=O)[C@H](CCCNC(=N)N)NC(=O)[C@@H](NC(=O)[C@H](CC(C)C)NC(=O)[C@H](Cc1ccccc1)NC(=O)[C@H](CC(N)=O)NC(=O)[C@H](C)NC(=O)[C@H](CC(C)C)NC(=O)[C@H](CCCNC(=N)N)NC(=O)[C@H](CCC(N)=O)NC(=O)[C@@H](NC(=O)[C@H](C)NC(=O)[C@@H]1CSSC[C@H](NC(=O)[C@@H](N)CCCCN)C(=O)N[C@@H](CC(N)=O)C(=O)N[C@@H]([C@@H](C)O)C(=O)N[C@@H](C)C(=O)N[C@@H]([C@@H](C)O)C(=O)N1)[C@@H](C)O)C(C)C)C(=O)NCC(=O)N1CCC[C@H]1C(=O)N[C@H](C(=O)N[C@@H](CC(C)C)C(=O)N1CCC[C@H]1C(=O)N1CCC[C@H]1C(=O)N[C@H](C(=O)N[C@@H](CC(N)=O)C(=O)N[C@H](C(=O)NCC(=O)N[C@@H](CO)C(=O)N[C@@H](CC(N)=O)C(=O)N[C@H](C(=O)N[C@@H](Cc1ccc(O)cc1)C(N)=O)[C@@H](C)O)C(C)C)[C@@H](C)O)C(C)C [amylin]
baseline activity, agent alone (mice [3]): did not affect baseline activity

O=C1CC2(CCCC2)CC(=O)N1CCCCN1CCN(c2ncccn2)CC1 [buspirone]
reduction in marble burying, significance (mice [4]; amylin at 10 mg/kg, buspirone at 20 mg/kg, P<0.05): statistically significant | number of marbles buried in 30 minutes (mice [4]; rat amylin 0.1, 1.0 or 10 mg/kg, buspirone 20/kg, 15-30 minutes prior, FIG. 3): reduced the number of marbles buried

CN1CCN(C2=Nc3cc(Cl)ccc3Nc3ccccc32)CC1 [clozapine]
weight gain compared to vehicle-treated rats [5]: increased weight gain | baseline activity, agent alone (mice [3]): did affect baseline activity

O=C(CCCN1CCC(O)(c2ccc(Cl)cc2)CC1)c1ccc(F)cc1 [haloperidol]
percent of prepulse inhibition (mice [6]): significantly increased the percent of prepulse inhibition

COc1ccc(C2CNC(=O)C2)cc1OC1CCCC1 (centres unmarked) [rolipram]
relative time exploring the novel object (memory index), in words (mice [7]): increased the relative time exploring the novel object

^18Arg^25,28Pro-h-amylin (KCNTATCATQRLANFLVRSSNNFGPILPSTNVGSNTY) [human amylin analog of formula I]
amylin activity in vivo (treated test animals): provoking marked hyperlactemia followed by hyperglycemia

^28Pro-h-amylin (KCNTATCATQRLANFLVHSSNNFGAILPSTNVGSNTY) [human amylin analog of formula I]
amylin activity in vivo (treated test animals): provoking marked hyperlactemia followed by hyperglycemia

des-^1Lys-h-amylin (CNTATCATQRLANFLVHSSNNFGAILSSTNVGSNTY) [human amylin analog of formula I]
amylin activity in vivo (treated test animals): provoking marked hyperlactemia followed by hyperglycemia

des-^1Lys^18Arg^25,28Pro-h-amylin (CNTATCATQRLANFLVRSSNNFGPILPSTNVGSNTY) [human amylin analog of formula I]
amylin activity in vivo (treated test animals): provoking marked hyperlactemia followed by hyperglycemia
